Results taken from patent US7410989B2, “Compounds, methods and compositions useful for the treatment of bovine viral diarrhea virus (BVDV) infection and hepatitis C virus (HCV) infection” (The University of North Carolina at Chapel Hill, priority 2001, dated 2008).

System: BVDV
Assay: Screening of antiviral compounds for anti-BVDV activity in MDBK cells; virus titre by immunoperoxidase monolayer assay
Assay type: cell-based, bovine viral diarrhea virus
Conditions: for Day 3 Media TCID50/mL / Day 3 Media % Control / Day 7 Media TCID50/mL / Day 7 Media % Control: culture medium
Experimental: 2.0 cm^2 wells in a 24-well plate were seeded with 50 μl of medium from 12 ml of MEM-eq (minimum essential medium (MEM) with Earle's salts supplemented with 10% (v/v) equine serum, sodium bicarbonate (0.75 mg/ml), L-glutamine (0.29 mg/ml), penicillin G (100 U/ml), streptomycin (100 μg/ml), and amphotericin B (0.25 μg/ml)), which was derived by trypsinization of a confluent monolayer of Madin Darby Bovine Kidney (MDBK) cells in a 25 cm^2 flask. Cells were incubated at 38.5° C. with 5% CO2 for 24 hours. The average number of cells per well was determined and later used to calculate appropriate multiplicities of infection (MOI) of BVDV virus. […]
The inoculated cells incubated for one hour at 38.5° C. with 5% CO2 in humidified air. The medium was removed from the wells, and the cells washed one time with Ca^2+ and Mg^2+-free PBS comprising antiviral compound (12.5 μM) (cells in the wells not initially treated with antiviral compounds were washed without antiviral compound). […] Three days post-inoculation, medium was removed and stored at −20° C. for assay. […] Seven days post-inoculation, medium was removed and stored at −80° C. for serial dilution & assay.
The MDBK cells were resuspended in MEM-eq with no antiviral compound. Uterine tubal cells (UTC) were freeze-thawed and stored at −80° C. for analysis. UTC lysates were serially diluted with medium from Day 7 and assayed by immunoperoxidase for the presence of BVDV.
All samples were assayed for BVDV using the immunoperoxidase monolayer assay as described in A. Afshar et al., Can J Vet Res; 55:91-93 (1991). Samples were assayed in triplicate by adding 50 μL of MEM-eq containing approximately 2.5×10^3 MDBK cells to 50-μL of each sample supplemented with 50 μL of fresh MEM-eq in a 96-well culture plate. Plates were incubated for 72 h at 38.5° C. in a humidified atmosphere of 5% CO2 and air before the immunoperoxidase labeling technique was performed as follows:
After fixation, potentially infected cells were incubated with monoclonal antibodies D89 (M. L. Vickers et al., J Vet Diagn Invest 2, 300-302 (1990); Xue W et al., J Clin Microbiol 28, 1688-1693 […] specific for E2/gp53, a major envelope glycoprotein of BVDV (Xue W et al., Vet Microbiol 57, 105-118 (1997)) and 20.10.6 specific for NS3-p80, a conserved nonstructural protein (W. V. Corapi et al., Am J Vet Res 51, 1388-1394 (1990)). After washing with PBS and Tween 20 to remove unbound antibodies, peroxidase-conjugated rabbit anti-mouse IgG (Jackson Immuno Research Lab, West Grove, Pa.) was added. After a short incubation period, unbound peroxidase-conjugated antibody was removed by washing with PBS and Tween 20. Finally, the enzyme substrate, aminoethyl carbazole (Zymed Laboratories, Inc., South San Francisco, Calif.), which produces a reddish-brown color when oxidized by horseradish peroxidase, was added. Color change was visualized under light microscopy and compared to known positive and negative controls on each plate.
The tissue culture infective dose 50% (TCID50)/ml of the exposure aliquot was determined by the method of Reed and Muench (L. J. Reed and H. Muench, Am J Hygiene 27, 493-497 (1938). Results of viral detection assays were compared using a Pearson Chi-square test statistic (J. Sall and A. Lehman, JMP Start Statistics (Duxbury Press, Belmont, Calif. (1996), 195-211).

[1] = 12.5 μM compound, BVDV MOI 0.05
[2] = 12.5 μM compound, BVDV MOI 0.05, titre as % of no-antiviral control
[3] = 12.5 μM compound, BVDV MOI 1.0, titre as % of no-antiviral control
[4] = 12.5 μM compound, BVDV MOI 0.5, titre as % of no-antiviral control
[5] = compound at 0.2 μm, BVDV MOI 0.05
[6] = compound at 0.4 μm, BVDV MOI 0.05
[7] = compound at 0.7 μm, BVDV MOI 0.05
[8] = compound at 1.5 μm, BVDV MOI 0.05
[9] = compound at 3 μm, BVDV MOI 0.05
[10] = compound at 6 μm, BVDV MOI 0.05
[11] = compound at 12 μm, BVDV MOI 0.05
[12] = compound at 25 μm, BVDV MOI 0.05

SMILES: N=C(N)Nc1ccc(-c2ccc(-c3ccc(NC(=N)N)cc3)o2)cc1 [DB673]
- Day 7 Cell Lysates TCID50/mL [1]: 3.50E+04 TCID50/mL
- Day 7 Cell Lysates % Control [2]: 1.75%
- Day 3 Media TCID50/mL [1]: 1.00E+02 TCID50/mL
- Day 3 Media % Control [2]: 0.05%
- Day 7 Media TCID50/mL [1]: 6.20E+03 TCID50/mL
- Day 7 Media % Control [2]: 1.19%
- Day 7 Cell Lysates TCID50/mL (12.5 μM compound, BVDV MOI 1.0): 2.70E+05 TCID50/mL
- Day 7 Cell Lysates % Control [3]: 43.55%
- Day 3 Media TCID50/mL (12.5 μM compound, BVDV MOI 1.0): 3.50E+02 TCID50/mL
- Day 3 Media % Control [3]: 0.10%
- Day 7 Media TCID50/mL (12.5 μM compound, BVDV MOI 1.0): 2.00E+05 TCID50/mL
- Day 7 Media % Control [3]: 571.43%

SMILES: COc1ccc(-c2ccc(-c3ccc(C4=NCCN4)cc3)o2)cc1 [DB 606]
- Day 3 Cell Lysates TCID50/mL (12.5 μM compound, BVDV MOI 0.5): Negative
- Day 3 Media TCID50/mL (12.5 μM compound, BVDV MOI 0.5): Negative

SMILES: Cc1cc(NC(=N)N)ccc1-c1ccc(-c2ccc(NC(=N)N)cc2C)o1 [DB 680]
- Day 3 Cell Lysates TCID50/mL (12.5 μM compound, BVDV MOI 0.5): Negative
- Day 3 Media TCID50/mL (12.5 μM compound, BVDV MOI 0.5): Negative

SMILES: CC(C)NC(=N)c1ccc2[nH]c(-c3ccc(-c4ccc(N)cc4)o3)nc2c1 [DB 459, 2-[5(6)-N-isopropylamidino-2-benzimidazoyl]-5-(4-aminophenyl)furan]
- Day 3 Cell Lysates TCID50/mL (12.5 μM compound, BVDV MOI 0.5): 1.00E+02 TCID50/mL
- Day 3 Cell Lysates % Control [4]: 0.0016%
- Day 3 Media TCID50/mL (12.5 μM compound, BVDV MOI 0.5): Negative

SMILES: COc1cc(NC(=N)N)ccc1-c1ccc(-c2ccc(NC(=N)N)cc2OC)o1 [DB 711]
- Day 3 Cell Lysates TCID50/mL (12.5 μM compound, BVDV MOI 0.5): 2.00E+07 TCID50/mL
- Day 3 Cell Lysates % Control [4]: 322.5806%
- Day 3 Media TCID50/mL (12.5 μM compound, BVDV MOI 0.5): 2.40E+05 TCID50/mL
- Day 3 Media % Control [4]: 6.8571%

SMILES: Nc1ccc(-c2ccc(-c3nc4ccc(C5=NCCN5)cc4[nH]3)o2)cc1 [DB 456, 2-[5 (6)-{2-imidazolinyl}-2-benzimidazoyl]-5-(4-aminophenyl)furan]
- Day 3 Cell Lysates % Control [5]: 100.0000%
- Day 3 Cell Lysates TCID50/mL [5]: 3.50E+05 TCID50/mL
- Day 3 Media % Control [5]: 31.5000%
- Day 3 Media TCID50/mL [5]: 6.30E+05 TCID50/mL
- Day 3 Cell Lysates % Control [6]: 1000.0000%
- Day 3 Cell Lysates TCID50/mL [6]: 3.50E+06 TCID50/mL
- Day 3 Media % Control [6]: 31.5000%
- Day 3 Media TCID50/mL [6]: 6.30E+05 TCID50/mL
- Day 3 Cell Lysates % Control [7]: 1000.0000%
- Day 3 Cell Lysates TCID50/mL [7]: 3.50E+06 TCID50/mL
- Day 3 Media % Control [7]: 31.5000%
- Day 3 Media TCID50/mL [7]: 6.30E+05 TCID50/mL
- Day 3 Cell Lysates % Control [8]: 1000.0000%
- Day 3 Cell Lysates TCID50/mL [8]: 3.50E+06 TCID50/mL
- Day 3 Media % Control [8]: 25.5000%
- Day 3 Media TCID50/mL [8]: 5.10E+05 TCID50/mL
- Day 3 Cell Lysates % Control [9]: 177.1429%
- Day 3 Cell Lysates TCID50/mL [9]: 6.20E+05 TCID50/mL
- Day 3 Media % Control [9]: 17.5000%
- Day 3 Media TCID50/mL [9]: 3.50E+05 TCID50/mL
- Day 3 Cell Lysates % Control [10]: 10.0000%
- Day 3 Cell Lysates TCID50/mL [10]: 3.50E+04 TCID50/mL
- Day 3 Media % Control [10]: 1.7500%
- Day 3 Media TCID50/mL [10]: 3.50E+04 TCID50/mL
- Day 3 Cell Lysates % Control [11]: 1.0000%
- Day 3 Cell Lysates TCID50/mL [11]: 3.50E+03 TCID50/mL
- Day 3 Media % Control [11]: 0.0310%
- Day 3 Media TCID50/mL [11]: 6.20E+02 TCID50/mL
- Day 3 Cell Lysates % Control [12]: 0.5714%
- Day 3 Cell Lysates TCID50/mL [12]: 2.00E+03 TCID50/mL
- Day 3 Media % Control [12]: 0.1750%
- Day 3 Media TCID50/mL [12]: 3.50E+03 TCID50/mL

SMILES: CC(C)NC(=N)c1ccc2[nH]c(-c3ccc(-c4ccc([N+](=O)[O-])cc4)o3)nc2c1 [DB 458, 2-[5 (6)-{N-isopropylamidino}-2-benzimidazoyl]-5-(4-nitrophenyl)furan]
- Day 3 Cell Lysates TCID50/mL (12.5 μM compound, BVDV MOI 0.5): Negative
- Day 3 Media TCID50/mL (12.5 μM compound, BVDV MOI 0.5): Negative

SMILES: O=[N+]([O-])c1ccc(-c2ccc(-c3nc4ccc(C5=NCCN5)cc4[nH]3)o2)cc1 [DB 457, 2-[5 (6)-{2-imidazolinyl}-2-benzimidazoyl]-5-(4-nitrophenyl)furan]
- Day 3 Cell Lysates TCID50/mL (12.5 μM compound, BVDV MOI 0.5): 3.50E+02 TCID50/mL
- Day 3 Cell Lysates % Control [4]: 0.0056%
- Day 3 Media TCID50/mL (12.5 μM compound, BVDV MOI 0.5): 1.00E+02 TCID50/mL
- Day 3 Media % Control [4]: 0.0029%

SMILES: N=C(N)Nc1ccc(-c2ccc(-c3ccc(NC(=N)N)cc3C(F)(F)F)o2)c(C(F)(F)F)c1 [DB 701]
- Day 3 Cell Lysates TCID50/mL (12.5 μM compound, BVDV MOI 0.5): 3.50E+04 TCID50/mL
- Day 3 Cell Lysates % Control [4]: 0.5645%
- Day 3 Media TCID50/mL (12.5 μM compound, BVDV MOI 0.5): 6.20E+03 TCID50/mL
- Day 3 Media % Control [4]: 0.1771%

SMILES: Cc1cc(NC(=N)N)ccc1-c1ccc(-c2ccc(NC(=N)N)cc2C)s1 [DB 752]
- Day 3 Cell Lysates TCID50/mL (12.5 μM compound, BVDV MOI 0.5): 6.20E+02 TCID50/mL
- Day 3 Cell Lysates % Control [4]: 0.01%
- Day 3 Media TCID50/mL (12.5 μM compound, BVDV MOI 0.5): Negative

SMILES: N=C(N)Nc1ccc(-c2ccc(-c3cccc(NC(=N)N)c3)o2)cc1 [DB 705]
- Day 3 Cell Lysates TCID50/mL (12.5 μM compound, BVDV MOI 0.5): Negative
- Day 3 Media TCID50/mL (12.5 μM compound, BVDV MOI 0.5): Negative

SMILES: N=C(N)c1ccc(-c2ccc(-c3cccc(C(=N)N)c3)[nH]2)cc1 [DB619]
- Day 7 Cell Lysates TCID50/mL [1]: 1.10E+06 TCID50/mL
- Day 7 Cell Lysates % Control [2]: 55.00%
- Day 3 Media TCID50/mL [1]: 3.50E+02 TCID50/mL
- Day 3 Media % Control [2]: 0.18%
- Day 7 Media TCID50/mL [1]: 2.00E+05 TCID50/mL
- Day 7 Media % Control [2]: 38.46%
- Day 7 Cell Lysates TCID50/mL (12.5 μM compound, BVDV MOI 1.0): 3.50E+05 TCID50/mL
- Day 7 Cell Lysates % Control [3]: 56.45%
- Day 3 Media TCID50/mL (12.5 μM compound, BVDV MOI 1.0): 6.20E+04 TCID50/mL
- Day 3 Media % Control [3]: 17.71%
- Day 7 Media TCID50/mL (12.5 μM compound, BVDV MOI 1.0): 3.50E+04 TCID50/mL
- Day 7 Media % Control [3]: 100.00%
